This is an account of results in PMC2654417 (Combinatorial chemistry & high throughput screening, 2008).

The target of this assay is T1, glucocorticoid receptor (GR) (Homo sapiens, UniProt P04150).
T1 sequence (P04150 1-777): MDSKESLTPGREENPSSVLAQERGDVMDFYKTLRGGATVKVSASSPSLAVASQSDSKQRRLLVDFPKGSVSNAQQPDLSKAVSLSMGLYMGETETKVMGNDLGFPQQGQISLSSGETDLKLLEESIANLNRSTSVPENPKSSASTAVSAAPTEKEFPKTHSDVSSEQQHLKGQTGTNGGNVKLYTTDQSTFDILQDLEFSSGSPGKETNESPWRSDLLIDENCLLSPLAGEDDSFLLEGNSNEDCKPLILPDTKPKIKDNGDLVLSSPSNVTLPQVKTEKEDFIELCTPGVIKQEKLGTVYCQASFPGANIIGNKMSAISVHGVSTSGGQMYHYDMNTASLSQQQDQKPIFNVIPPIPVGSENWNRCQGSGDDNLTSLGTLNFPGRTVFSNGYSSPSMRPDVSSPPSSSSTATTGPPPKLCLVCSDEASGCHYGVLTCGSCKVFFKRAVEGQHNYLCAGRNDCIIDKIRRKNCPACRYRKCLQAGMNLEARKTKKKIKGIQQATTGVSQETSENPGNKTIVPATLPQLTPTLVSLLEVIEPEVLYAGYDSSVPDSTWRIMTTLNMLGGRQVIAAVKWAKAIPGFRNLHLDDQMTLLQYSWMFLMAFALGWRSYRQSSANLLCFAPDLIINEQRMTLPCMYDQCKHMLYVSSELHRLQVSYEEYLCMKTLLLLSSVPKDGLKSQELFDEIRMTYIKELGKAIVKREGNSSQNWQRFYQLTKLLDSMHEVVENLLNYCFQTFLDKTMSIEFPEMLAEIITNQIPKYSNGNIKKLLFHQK
Briefly: GR-EFC nuclear translocation assay. Conditions: for qHTS Hill Slope: Hill slope of the qHTS curve fit; for log qEC50: log10 of qEC50 in M, printed as negative values; for qHTS Max Activity: maximal activity of the qHTS curve, inactive threshold […] (3σ); for EC50: read-out: qEC50. Type of assay: cell-based. For orientation: qHTS replaces the single test concentration by a dilution series.

[1] abbreviates: class 4 values are fit defaults.
The mark [2] stands for this setting: qHTS curve fit, class 4 values are fit defaults.

Where two headings read alike, the source gives them in different places.

With `C[C@]12C=CC(=O)C=C1CC[C@@H]1[C@H]3C[C@@H](O)[C@](O)(C(=O)CO)[C@@]3(C)C[C@H](O)[C@]12F` [NCGC00016376-01], the “qHTS Hill Slope” value was 1.15 and the “qHTS Max Activity” value was 67.5. The “log qEC50” value under setting [1] was −7.082. Besides, under setting [2], the EC50 turned out to be 0.0827 µM.
As for `C[C@H]1CC[C@@]2(NC1)O[C@@H]1C[C@H]3[C@@H]4CC=C5C[C@@H](O)CC[C@]5(C)[C@@H]4CC[C@]3(C)[C@@H]1[C@@H]2C` [NCGC00016381-01], the EC50 under setting [2] is greater than 9 µM.
In the case of `C[C@@]12CC[C@H](O)C[C@@H]1CC[C@H]1[C@H]2CC[C@@]2(C)[C@@H](C3=CC(=O)OC3)CC[C@]12O` [NCGC00016406-01], under setting [2], the EC50 is greater than 9 µM.
As for `CC(=O)[C@H]1CC[C@H]2[C@@H]3C=CC4=CC(=O)CC[C@@]4(C)[C@@H]3CC[C@]12C` [NCGC00016413-01], the “qHTS Curve Class” value was 4 (inactive, where activity was below 28.6% (3σ for the present assay)) and the EC50 is greater than 9 µM.
As to `C#C[C@@]1(OC(C)=O)CC[C@@H]2[C@@H]3CCC4=C[C@@H](OC(C)=O)CC[C@H]4[C@H]3CC[C@]21C` [NCGC00016417-01], the “qHTS Curve Class” value is 4 (inactive, where activity was below 28.6% (3σ for the present assay)) and the EC50 was greater than 9 µM.
With `CC(=O)OCC(=O)[C@@]1(O)CC[C@H]2[C@@H]3CCC4=CC(=O)C=C[C@]4(C)[C@@]3(F)[C@@H](O)C[C@@]21C` [NCGC00016433-01], the “qHTS Hill Slope” value turned out to be 0.52 and the “qHTS Max Activity” value was found to be 80.8. The “log qEC50” value under setting [1] is on record as −7.456. Further, the EC50 under setting [2] worked out at 0.035 µM.
In the case of `CC(=O)OCC(=O)[C@@]12OC(C)(C)O[C@@H]1C[C@H]1[C@@H]3C[C@H](F)C4=CC(=O)C=C[C@]4(C)[C@@]3(F)[C@@H](O)C[C@@]12C` [NCGC00016436-01], the “qHTS Max Activity” value is listed as 47.0. Also, the “log qEC50” value under setting [1] is −7.893. Under setting [2], the EC50 came to 0.0128 µM.
Turning to `C[C@@]12CC(=O)[C@H]3[C@@H](CCC4=CC(=O)CC[C@]43C)[C@H]1CCC2=O` [NCGC00016440-01], the EC50 under setting [2] was greater than 9 µM.
On to `CC(=O)[C@@]1(O)CC[C@H]2[C@@H]3C[C@H](C)C4=CC(=O)C=C[C@]4(C)[C@@]3(F)[C@@H](O)C[C@@]21C` [NCGC00016442-01], for which the “qHTS Hill Slope” value came out at 0.63 and the “qHTS Max Activity” value was found to be 84.0. Besides, under setting [1], the “log qEC50” value is −8.086. Besides, under setting [2], the EC50 came to 0.00821 µM.
Turning to `C#C[C@@]1(O)CC[C@@H]2[C@@H]3CCC4=CC(=O)CC[C@@]4(C)[C@H]3CC[C@]21C` [NCGC00016444-01], the “qHTS Hill Slope” value stood at 0.97 and the “qHTS Max Activity” value was 15.2.
Consider `C[C@H](CCC(=O)O)[C@H]1CC[C@@H]2[C@H]3CC[C@H]4C[C@@H](O)CC[C@@]4(C)[C@H]3CC[C@]21C` [NCGC00016445-01], for which the EC50 under setting [2] is greater than 9 µM.
Turning to `C[C@@H]1O[C@@H](O[C@@H]2C=C3CC[C@@H]4[C@H](CC[C@]5(C)[C@@H](c6ccc(=O)oc6)CC[C@]45O)[C@@]3(C)CC2)[C@H](O)[C@H](O)[C@H]1O` [NCGC00016447-01], the “qHTS Curve Class” value is 4 (inactive, where activity was below 28.6% (3σ for the present assay)) and the EC50 is greater than 9 µM.
Regarding `C=C(C)[C@H]1CC[C@]2(C(=O)O)CC[C@]3(C)[C@@H](CC[C@H]4[C@@]5(C)CC[C@@H](O)C(C)(C)[C@@H]5CC[C@@]43C)[C@H]12` [NCGC00016449-01], the “qHTS Curve Class” value is 4 (inactive, where activity was below 28.6% (3σ for the present assay)) and the EC50 was greater than 9 µM.
`C=C(C)[C@H]1CC[C@]2(CO)CC[C@]3(C)[C@@H](CC[C@H]4[C@@]5(C)CC[C@@H](O)C(C)(C)[C@@H]5CC[C@@]43C)[C@H]12` [NCGC00016450-01]: the “qHTS Curve Class” value was 4 (inactive, where activity was below 28.6% (3σ for the present assay)) and the EC50 is greater than 9 µM.
Turning to `C[C@]12CC[C@@H]3C(=CCc4cc(O)ccc43)[C@@H]1CCC2=O` [NCGC00016451-01], the “qHTS Curve Class” value is 4 (inactive, where activity was below 28.6% (3σ for the present assay)) and the EC50 was greater than 9 µM.
As for `C[C@H](CCC(=O)NCC(=O)O)[C@H]1CC[C@H]2[C@H]3[C@@H](C[C@@H](O)[C@]12C)[C@]1(C)CC[C@H](O)C[C@@H]1C[C@@H]3O` [NCGC00016452-01], under setting [2], the EC50 was greater than 9 µM.
For `CC(=O)OCC(=O)[C@@]1(O)CC[C@@H]2[C@H]3CCC4=CC(=O)CC[C@]4(C)[C@]3(F)[C@@H](O)C[C@@]21C` [NCGC00016476-01], the “qHTS Hill Slope” value was found to be 0.75 and the “qHTS Max Activity” value turned out to be 74.0.
On to `C[C@@H]1[C@H]2CC[C@@H]3[C@@H]4CC=C5C[C@@H](N(C)C)CC[C@]5(C)[C@@H]4CC[C@@]32CN1C` [NCGC00016502-01], for which the EC50 under setting [2] is greater than 9 µM.
As for `CC(=O)O[C@]1(C(C)=O)CC[C@H]2[C@@H]3C=C(C)C4=CC(=O)CC[C@]4(C)[C@H]3CC[C@@]21C` [NCGC00016516-01], the “qHTS Hill Slope” value is given as 0.49 and the “qHTS Max Activity” value is recorded as 47.2. The “log qEC50” value under setting [1] was −7.254. Moreover, the EC50 under setting [2] turned out to be 0.0557 µM.
For the molecule `C[C@@H]1O[C@H](O[C@@H]2CC[C@@]3(C=O)[C@H]4CC[C@@]5(C)[C@@H](C6=CC(=O)OC6)CC[C@@]5(O)[C@@H]4CC[C@]3(O)C2)C[C@H](O)[C@@H]1O` [NCGC00016524-01], the EC50 under setting [2] was greater than 9 µM.
Turning to `C#C[C@@]1(O)CC[C@@H]2[C@@H]3CCC4=CC(=O)CC[C@@H]4[C@H]3CC[C@]21CC` [NCGC00016540-01], the “qHTS Curve Class” value was 4 (inactive, where activity was below 28.6% (3σ for the present assay)) and the EC50 is greater than 9 µM.
As for `CC(=O)O[C@H]1CC[C@@]2(C)C(=CC[C@@H]3[C@@H]2CC[C@]2(C)C(=O)CC[C@@H]32)C1` [NCGC00016544-01], the EC50 under setting [2] is greater than 9 µM.
Take `CC1(C)O[C@@H]2C[C@H]3[C@@H]4C[C@H](F)C5=CC(=O)CC[C@]5(C)[C@H]4[C@@H](O)C[C@]3(C)[C@]2(C(=O)CO)O1` [NCGC00016586-01]: the “qHTS Hill Slope” value stood at 0.69 and the “qHTS Max Activity” value turned out to be 104.7. Further, the “log qEC50” value under setting [1] is −7.725. Moreover, under setting [2], the EC50 was 0.0188 µM.
For `C[C@@]12CC[C@H](O)C[C@@H]1CC[C@H]1[C@@H]2C[C@@H](O)[C@]2(C)[C@@H](C3=CC(=O)OC3)CC[C@]12O` [NCGC00016591-01], the EC50 under setting [2] was greater than 9 µM.
Regarding `C[C@]12C[C@H]3S[C@H]3C[C@@H]1CC[C@@H]1[C@@H]2CC[C@]2(C)[C@@H](O)CC[C@@H]12` [NCGC00016609-01], the “qHTS Curve Class” value is 4 (inactive, where activity was below 28.6% (3σ for the present assay)) and the EC50 is greater than 9 µM.
For the molecule `CC(=O)[C@H]1CC[C@H]2[C@@H]3C[C@H](C)C4=CC(=O)CC[C@]4(C)[C@H]3[C@@H](O)C[C@]12C` [NCGC00016616-01], the “qHTS Hill Slope” value is on record as 0.13 and the “qHTS Max Activity” value was 100.0. Also, under setting [1], the “log qEC50” value is −5.381. Also, the EC50 under setting [2] was 4.16 µM.
`C[C@@]12CC[C@@H]3c4ccc(OS(=O)(=O)O)cc4CC[C@H]3[C@H]1CCC2=O` [NCGC00016682-01]: the EC50 under setting [2] was greater than 9 µM.
Still for that read-out and setting: for `CC(=O)O[C@H]1C[C@H]2CC[C@@H]3[C@@H](CC[C@]4(C)[C@H](OC(C)=O)[C@H]([N+]5(C)CCCCC5)C[C@@H]34)[C@]2(C)C[C@H]1[N+]1(C)CCCCC1` [NCGC00016716-01] the value was greater than 9 µM.
Consider `C#C[C@]1(O)CC[C@@H]2[C@H]3CCC4=Cc5oncc5C[C@]4(C)[C@@H]3CC[C@@]21C` [NCGC00016726-01], for which the “qHTS Curve Class” value is 4 (inactive, where activity was below 28.6% (3σ for the present assay)) and the EC50 was greater than 9 µM.
As for `CC(=O)OCC(=O)[C@H]1CC[C@H]2[C@@H]3CC[C@H]4C[C@H](O)CC[C@]4(C)[C@H]3C(=O)C[C@]12C` [NCGC00016783-01], the EC50 under setting [2] was greater than 9 µM.
Regarding `CC(=O)OCC(=O)[C@@]1(OC(C)=O)[C@H](C)C[C@H]2[C@@H]3C[C@H](F)C4=CC(=O)C=C[C@@]4(C)[C@]3(F)[C@H](O)C[C@@]21C` [NCGC00016822-01], the “qHTS Hill Slope” value is 0.44 and the “qHTS Max Activity” value worked out at 80.7. Also, the “log qEC50” value under setting [1] is −7.111. In addition, the EC50 under setting [2] came out at 0.0775 µM.
On to `CCC(=O)[C@@]1(C)[C@H](C)C[C@H]2[C@@H]3CCC4=CC(=O)C=C[C@]4(C)[C@H]3[C@@H](O)C[C@@]21C` [NCGC00016856-01], for which the “qHTS Hill Slope” value is on record as 0.52 and the “qHTS Max Activity” value amounted to 77.5. Also, under setting [1], the “log qEC50” value is −8.507. Further, the EC50 under setting [2] was 0.00311 µM.
As to `CC(=O)CC(=O)[C@@]1(O)CC[C@@H]2[C@@H]3C=C(C)C4=CC(=O)CC[C@@H]4[C@H]3CC[C@]21C` [NCGC00016884-01], the “qHTS Hill Slope” value came out at 0.57 and the “qHTS Max Activity” value was found to be 15.6.
Regarding `CCOC(=O)O[C@]1(C(=O)COC(=O)CC)CC[C@H]2[C@@H]3CCC4=CC(=O)C=C[C@]4(C)[C@H]3[C@@H](O)C[C@@]21C` [NCGC00016926-01], the “qHTS Hill Slope” value was 0.96 and the “qHTS Max Activity” value is recorded as 30.2. Moreover, the “log qEC50” value under setting [1] was −8.025. For the same molecule, the EC50 under setting [2] turned out to be 0.00944 µM.
